Results from PubChem BioAssay AID1963870 (Molecular Pharmacology Branch, DTP, NCI, 2024).
pIC50: −log10 of the molar value.

System: 292921-168-R-J2-PDC KRAS tumor spheroid viability
Assay: Anticancer human tumor 292921-168-R-J2-PDC patient-derived pancreatic carcinoma cell line growth inhibition [KRAS2]
Conditions: spheroids with HUVEC and MSC; for pIC50: curve of first compound; for viability, T/C: stronger effect = lower value
Method in brief: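 KRAS-mutant tumor cells were grown as spheroids with HUVEC endothelial cells and human MSCs as stroma. Targeted agents were tested alone and with KRAS pathway inhibitors. Doses started at or near clinical Cmax, or 10 microM, descending half-log.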

[1] = second compound 0.1 µM, first compound 0.0316 µM
[2] = second compound 0.1 µM, first compound 0.1 µM
[3] = second compound 0.1 µM, first compound 0.316 µM
[4] = second compound 0.1 µM, first compound 1 µM
[5] = second compound 0.1 µM, first compound 3.16 µM
[6] = second compound 0.1 µM, first compound 10 µM
[7] = second compound 0.316 µM, first compound 0.0316 µM
[8] = second compound 0.316 µM, first compound 0.1 µM
[9] = second compound 0.316 µM, first compound 0.316 µM
[10] = second compound 0.316 µM, first compound 1 µM
[11] = second compound 0.316 µM, first compound 3.16 µM
[12] = second compound 0.316 µM, first compound 10 µM
[13] = second compound 1 µM, first compound 0.0316 µM
[14] = second compound 1 µM, first compound 0.1 µM
[15] = second compound 1 µM, first compound 0.316 µM
[16] = second compound 1 µM, first compound 1 µM
[17] = second compound 1 µM, first compound 3.16 µM
[18] = second compound 1 µM, first compound 10 µM
[19] = second compound 3.16 µM, first compound 0.0316 µM
[20] = second compound 3.16 µM, first compound 0.1 µM
[21] = second compound 3.16 µM, first compound 0.316 µM
[22] = second compound 3.16 µM, first compound 1 µM
[23] = second compound 3.16 µM, first compound 3.16 µM
[24] = second compound 3.16 µM, first compound 10 µM
[25] = second compound 10 µM, first compound 0.0316 µM
[26] = second compound 10 µM, first compound 0.1 µM
[27] = second compound 10 µM, first compound 0.316 µM
[28] = second compound 10 µM, first compound 1 µM
[29] = second compound 10 µM, first compound 3.16 µM
[30] = second compound 10 µM, first compound 10 µM
[31] = second compound 0.1 µM, first compound 0.01 µM
[32] = second compound 0.316 µM, first compound 0.01 µM
[33] = second compound 1 µM, first compound 0.01 µM
[34] = second compound 3.16 µM, first compound 0.01 µM
[35] = second compound 10 µM, first compound 0.01 µM
[36] = second compound 0.1 µM, first compound 0.00316 µM
[37] = second compound 0.316 µM, first compound 0.00316 µM
[38] = second compound 1 µM, first compound 0.00316 µM
[39] = second compound 3.16 µM, first compound 0.00316 µM
[40] = second compound 10 µM, first compound 0.00316 µM
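Also: drug exposure lasted seven days after spheroids formed for three days.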
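For viability, T/C in this document: percent of DMSO vehicle control viability which is 100%.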

Row | SMILES | pIC50 (second compound 0.1 µM) | pIC50 (second compound 0.316 µM) | pIC50 (second compound 1 µM) | pIC50 (second compound 3.16 µM) | pIC50 (second compound 10 µM) | viability, T/C [1] | viability, T/C [2] | viability, T/C [3] | viability, T/C [4] | viability, T/C [7] | viability, T/C [8] | viability, T/C [9] | viability, T/C [10] | viability, T/C [13] | viability, T/C [14] | viability, T/C [15] | viability, T/C [19] | viability, T/C [20] | viability, T/C [25] | viability, T/C [26] | also measured
1 | CC(C)NCC(C(=O)N1CCN(c2ncnc3c2C(C)CC3O)CC1)c1ccc(Cl)cc1 (stereo not given) + CNCc1ccccc1-c1csc(C(C)Nc2nc(C)nc3cc(OC)c(OC)cc23)c1 | 5.15 | 5.29 | 6.22 | > 7.50 | > 7.50 | 80.5% | 88.9% | 74.1% | 77.3% | 76.9% | 70.6% | 65.1% | 65.4% | 59.9% | 55.4% | 49.5% | 0.1% | 0.09% | 0.09% | 0.08% | viability, T/C [5]: 67.8%; viability, T/C [6]: 42.5%; viability, T/C [11]: 62.6%; viability, T/C [12]: 35.6%; viability, T/C [16]: 46.7%; viability, T/C [17]: 42.2%; viability, T/C [18]: 22.9%; viability, T/C [21]: 0.37%; viability, T/C [22]: 0.1%; viability, T/C [23]: 0.07%; viability, T/C [24]: 0.36%; viability, T/C [27]: 0.25%; viability, T/C [28]: 0.36%; viability, T/C [29]: 0.09%; viability, T/C [30]: 0.3%
2 | CC1COCCN1c1cc(-c2ccnn2C)c2ccnc(-c3ccn[nH]3)c2n1 (stereo not given) + CNCc1ccccc1-c1csc(C(C)Nc2nc(C)nc3cc(OC)c(OC)cc23)c1 | > 8.00 | > 8.00 | > 8.00 | > 8.00 | > 8.00 | 21% | 15.5% | 13.1% | 15.2% | 19.7% | 12.7% | 12.9% | 14.1% | 16.3% | 11.1% | 11.3% | 0.07% | 0.05% | 0.09% | 0.27% | viability, T/C [31]: 39.3%; viability, T/C [5]: 16.1%; viability, T/C [32]: 34.4%; viability, T/C [11]: 14.8%; viability, T/C [33]: 28.9%; viability, T/C [16]: 13.5%; viability, T/C [17]: 12.8%; viability, T/C [34]: 0.07%; viability, T/C [21]: 0.08%; viability, T/C [22]: 0.1%; viability, T/C [23]: 0.16%; viability, T/C [35]: 0.11%; viability, T/C [27]: 0.08%; viability, T/C [28]: 0.09%; viability, T/C [29]: 0.15%
3 | CCN1CCN(Cc2ccc(Nc3ncc(F)c(-c4cc(F)c5nc(C)n(C(C)C)c5c4)n3)nc2)CC1 + CNCc1ccccc1-c1csc(C(C)Nc2nc(C)nc3cc(OC)c(OC)cc23)c1 | 7.70 | 7.79 | 8.35 | > 8.50 | > 8.50 | 42% | 30.9% | 24.8% | 19.1% | 37.1% | 31.8% | 23.6% | 12.3% | 28.6% | 22.3% | 21.3% | 0.04% | 0.05% | 0.08% | 0.08% | viability, T/C [36]: 76.5%; viability, T/C [31]: 60.9%; viability, T/C [37]: 73.2%; viability, T/C [32]: 57.4%; viability, T/C [38]: 54.3%; viability, T/C [33]: 42.6%; viability, T/C [16]: 0.5%; viability, T/C [39]: 0.12%; viability, T/C [34]: 0.07%; viability, T/C [21]: 0.1%; viability, T/C [22]: 0.1%; viability, T/C [40]: 0.11%; viability, T/C [35]: 0.11%; viability, T/C [27]: 0.08%; viability, T/C [28]: 0.13%
4 | Cn1nccc1Nc1nccc(-c2cc3c(s2)C(C)(C)N(CCN2CCOCC2)C3=O)n1 + CNCc1ccccc1-c1csc(C(C)Nc2nc(C)nc3cc(OC)c(OC)cc23)c1 | 7.08 | 7.18 | > 7.50 | > 7.50 | > 7.50 | 73.9% | 45.7% | 19% | 12.3% | 68.8% | 39.7% | 18.6% | 10.9% | 47.1% | 30.1% | 14.5% | 0.09% | 0.29% | 0.08% | 0.09% | viability, T/C [5]: 10.2%; viability, T/C [6]: 10.2%; viability, T/C [11]: 9.74%; viability, T/C [12]: 10.6%; viability, T/C [16]: 11.1%; viability, T/C [17]: 8.76%; viability, T/C [18]: 6.3%; viability, T/C [21]: 0.03%; viability, T/C [22]: 0.03%; viability, T/C [23]: 0.03%; viability, T/C [24]: 0.11%; viability, T/C [27]: 0.1%; viability, T/C [28]: 0.09%; viability, T/C [29]: 0.1%; viability, T/C [30]: 0.15%
5 | Cn1ncnc1[C@H]1c2n[nH]c(=O)c3cc(F)cc(c23)N[C@@H]1c1ccc(F)cc1 + CNCc1ccccc1-c1csc(C(C)Nc2nc(C)nc3cc(OC)c(OC)cc23)c1 | < 7.00 | < 7.00 | 7.62 | > 9.50 | > 9.50 | 75.9% | 63.5% |  |  | 65.5% | 56.9% |  |  | 48.6% | 41.4% |  | 0.08% | 0.13% | 0.35% | 0.15% | viability, T/C (second compound 0.1 µM, first compound 0.000316 µM): 87.7%; viability, T/C (second compound 0.1 µM, first compound 0.001 µM): 87.8%; viability, T/C [36]: 84.2%; viability, T/C [31]: 81.3%; viability, T/C (second compound 0.316 µM, first compound 0.000316 µM): 77.3%; viability, T/C (second compound 0.316 µM, first compound 0.001 µM): 84.3%; viability, T/C [37]: 79.9%; viability, T/C [32]: 69.2%; viability, T/C (second compound 1 µM, first compound 0.000316 µM): 57.3%; viability, T/C (second compound 1 µM, first compound 0.001 µM): 55.7%; viability, T/C [38]: 57.6%; viability, T/C [33]: 52.6%; viability, T/C (second compound 3.16 µM, first compound 0.000316 µM): 0.07%; viability, T/C (second compound 3.16 µM, first compound 0.001 µM): 0.08%; viability, T/C [39]: 0.08%; viability, T/C [34]: 0.07%; viability, T/C (second compound 10 µM, first compound 0.000316 µM): 0.08%; viability, T/C (second compound 10 µM, first compound 0.001 µM): 0.08%; viability, T/C [40]: 0.48%; viability, T/C [35]: 0.87%
